Where two headings read alike, the source gives them in different places.
Assays:
[1] = target: T1, DβH (Homo sapiens, UniProt P09172); assay: DβH inhibition cell assay (SK-N-SH cellular homogenates, tyramine to octopamine); type: biochemical; settings: for remaining activity at 0.1 µM: inhibitor 0.1 μM, read-out: DβH activity in % of Ctrl (0.1 μM); for remaining activity at 1 µM: read-out: DβH activity in % of Ctrl (1 μM); for remaining activity at 10 µM: inhibitor 10 μM, read-out: DβH activity in % of Ctrl (10 μM)
T1 construct: reaction mixture (total volume 500 μl) contained: cellular homogenate (75 μg total protein); host or cells: SK-N-SH cell homogenate
T1 sequence (P09172 1-617): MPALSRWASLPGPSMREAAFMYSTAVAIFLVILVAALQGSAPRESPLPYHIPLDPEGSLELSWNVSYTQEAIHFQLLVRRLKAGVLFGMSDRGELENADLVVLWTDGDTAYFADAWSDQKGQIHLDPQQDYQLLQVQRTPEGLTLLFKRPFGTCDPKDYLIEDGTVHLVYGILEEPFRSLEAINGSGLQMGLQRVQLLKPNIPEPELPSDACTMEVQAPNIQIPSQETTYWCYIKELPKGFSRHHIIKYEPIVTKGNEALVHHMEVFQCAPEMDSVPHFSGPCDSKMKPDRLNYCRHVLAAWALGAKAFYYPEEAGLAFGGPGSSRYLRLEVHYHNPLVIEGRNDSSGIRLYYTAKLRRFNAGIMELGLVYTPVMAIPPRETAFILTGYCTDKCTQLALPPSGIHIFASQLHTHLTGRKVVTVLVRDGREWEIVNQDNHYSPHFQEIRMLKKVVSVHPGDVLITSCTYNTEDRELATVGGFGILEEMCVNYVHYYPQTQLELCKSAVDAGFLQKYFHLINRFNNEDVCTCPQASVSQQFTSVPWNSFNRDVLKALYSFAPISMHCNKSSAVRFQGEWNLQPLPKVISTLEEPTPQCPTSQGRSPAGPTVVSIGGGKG

[2] = in vitro; settings: dog, MDCK, pH 7.4
[3] = inhibitor 1 μM, SK-N-SH cell homogenate

| Structure (SMILES) | remaining activity at 0.1 µM ([1]; SK-N-SH cell homogenate) | remaining activity at 1 µM [1, 3] | Papp A→B at 30 min, 50 μM [2] | remaining activity at 10 µM ([1]; SK-N-SH cell homogenate) | remaining activity at 1 µM [1] |
| --- | --- | --- | --- | --- | --- |
| CNC(=S)N1C[C@@H]2C[C@]2(c2cc(F)cc(F)c2)C1 [Example 30, (1S,5R)-1-(3,5-Difluorophenyl)-N-methyl-3-azabicyclo[3.1.0]hexane-3-carbothioamide] | 3.3% | 2.8% | 126 ×10⁻⁶ cm/s |  |  |
| NC(=S)N1CCC(c2ccco2)C1 (stereo not drawn) [Example 17, 3-(furan-2-yl)pyrrolidine-1-carbothioamide] |  | 56.8% | 79.4 ×10⁻⁶ cm/s |  |  |
| CNC(=S)N1CCC(c2ccccc2)C1 (stereo not drawn) [Example 31, N-methyl-3-phenylpyrrolidine-1-carbothioamide] |  |  | 79.4 ×10⁻⁶ cm/s | 15.8% |  |
| Cc1ccc(C2CCN(C(N)=S)C2)s1 (stereo not drawn) [Example 10, 3-(5-methylthiophen-2-yl)pyrrolidine-1-carbothioamide] | 54.9% | 2.7% | 126 ×10⁻⁶ cm/s | 0% |  |
| S=c1[nH]cc2n1CC(c1ccccc1)C2 (stereo not drawn) [Example 49, 6-phenyl-6,7-dihydro-2H-pyrrolo[1,2-c]imidazole-3(5H)-thione] |  |  | 100 ×10⁻⁶ cm/s |  | 60.6% |
| CNC(=S)N1CCC(c2cc(F)cc(F)c2)C1 (stereo not drawn) [Example 32, 3-(3,5-difluorophenyl)-N-methylpyrrolidine-1-carbothioamide] | 57.3% | 4.7% | 100 ×10⁻⁶ cm/s |  |  |
| NC(=S)N1CC2CC2(c2ccccc2)C1 (stereo not drawn) [Example 8, 1-phenyl-3-azabicyclo[3.1.0]hexane-3-carbothioamide] |  | 14.5% | 126 ×10⁻⁶ cm/s | 2.2% |  |
| NC(=S)N1CCC(C2CCCCC2)C1 (stereo not drawn) [Example 9, 3-cyclohexylpyrrolidine-1-carbothioamide] |  | 30.9% | 251 ×10⁻⁶ cm/s | 5.3% |  |
| NC(=S)N1CC[C@H](c2cc(F)cc(F)c2)C1 [Example 26, (R)-3-(3,5-difluorophenyl)pyrrolidine-1-carbothioamide] |  | 21.4% | 100 ×10⁻⁶ cm/s |  |  |
| Cc1ccccc1C1CCN(C(N)=S)C1 (stereo not drawn) [Example 13, 3-o-tolylpyrrolidine-1-carbothioamide] |  |  |  | 7.2% |  |
| NC(=S)N1CCC(c2ccc(F)cc2F)C1 (stereo not drawn) [Example 5, 3-(2,4-difluorophenyl)pyrrolidine-1-carbothioamide] | 83.2% |  |  | 0.8% |  |
| NC(=S)N1CCC(c2cc(F)c(F)cc2F)C1 (stereo not drawn) [Example 19, 3-(2,4,5-trifluorophenyl)pyrrolidine-1-carbothioamide] |  | 33.4% |  |  |  |
| NC(=S)N1CC[C@H](c2ccccc2)C1 [Example 11, (R)-3-phenylpyrrolidine-1-carbothioamide] | 86.4% | 31.4% |  | 1.5% |  |
| NC(=S)N1C[C@@H]2C[C@]2(c2cccs2)C1 [Example 28, (1R,5R)-1-(thiophen-2-yl)-3-azabicyclo[3.1.0]hexane-3-carbothioamide] | 0.2% | 3.3% |  |  |  |
| NC(=S)N1CCC(c2cc(F)ccc2F)C1 (stereo not drawn) [Example 18, 3-(2,5-difluorophenyl)pyrrolidine-1-carbothioamide] | 57% | 6.4% |  |  |  |

Now from value to compound, other results behind:

| remaining activity at 0.1 µM ([1]; SK-N-SH cell homogenate) | remaining activity at 1 µM [1, 3] | Papp A→B at 30 min, 50 μM [2] | remaining activity at 10 µM ([1]; SK-N-SH cell homogenate) | Structure (SMILES) | remaining activity at 1 µM [1] |
| --- | --- | --- | --- | --- | --- |
| 41.7% | 7.8% | 15.8 ×10⁻⁶ cm/s |  | Fc1ccc(F)c([C@]23C[C@H]2c2c[nH]c(=S)n2C3)c1 [Example 56, (5aS,6aR)-5a-(2,5-difluorophenyl)-5,5a,6,6a-tetrahydrocyclopropa[3,4]pyrrolo[1,2-c]imidazole-3(2H)-thione] |  |
| 44.3% | 8.2% | 25.1 ×10⁻⁶ cm/s |  | Fc1cc(F)cc([C@]23C[C@H]2c2c[nH]c(=S)n2C3)c1 [Example 54, (5aS,6aR)-5a-(3,5-difluorophenyl)-5,5a,6,6a-tetrahydrocyclopropa[3,4]pyrrolo[1,2-c]imidazole-3(2H)-thione] |  |
|  |  | 63.1 ×10⁻⁶ cm/s |  | CC(C)NCC(O)COc1cccc2ccccc12 (stereo not drawn) [Propranolol, reference compound] |  |
| 24.8% | 0% |  |  | Cn1cc2n(c1=S)C[C@@]1(c3cc(Cl)ccc3F)C[C@@H]21 [Example 116, (5aS,6aR)-5a-(5-chloro-2-fluorophenyl)-2-methyl-5,5a,6,6a-tetrahydrocyclopropa[3,4]pyrrolo[1,2-c]imidazole-3 (2H)-thione] |  |
| 4% | 0% |  |  | NC(=S)N1C[C@@H]2C[C@]2(c2cc(F)cc(F)c2)C1 [Example 36, (1S,5R)-1-(3,5-difluorophenyl)-3-azabicyclo[3.1.0]hexane-3-carbothioamide] |  |
| 1.8% | 1% |  |  | Fc1ccc(Cl)c(F)c1[C@]12C[C@H]1c1c[nH]c(=S)n1C2 [Example 90, (5aS,6aR)-5a-(3-chloro-2,6-difluorophenyl)-5,5a,6,6a-tetrahydrocyclopropa[3,4]pyrrolo[1,2-c]imidazole-3 (2H)-thione] |  |
| 21.9% | 1.8% |  |  | Fc1ccc(Cl)cc1[C@]12C[C@H]1c1c[nH]c(=S)n1C2 [Example 74, (5aS,6aR)-5a-(5-chloro-2-fluorophenyl)-5,5a,6,6a-tetrahydrocyclopropa[3,4]pyrrolo[1,2-c]imidazole-3 (2H)-thione] |  |
|  | 59.4% |  |  | S=c1[nH]cc2n1CC(C1CCCCC1)C2 (stereo not drawn) [Example 81, 6-cyclohexyl-6,7-dihydro-2H-pyrrolo[1,2-c]imidazole-3(5H)-thione] |  |
|  | 17.4% |  |  | Cn1cc2n(c1=S)C[C@@]1(c3cc(F)cc(F)c3)C[C@@H]21 [Example 76, (5aS,6aR)-5a-(3,5-difluorophenyl)-2-methyl-5,5a,6,6a-tetrahydrocyclopropa[3,4]pyrrolo[1,2-c]imidazole-3 (2H)-thione] |  |
|  | 29.8% |  |  | Fc1cccc(Cl)c1[C@]12C[C@H]1c1c[nH]c(=S)n1C2 [Example 89, (5aS,6aR)-5a-(2-chloro-6-fluorophenyl)-5,5a,6,6a-tetrahydrocyclopropa[3,4]pyrrolo[1,2-c]imidazole-3 (2H)-thione] |  |
| 43.1% | 9.8% |  |  | Fc1cc(F)c(F)c([C@H]2Cc3c[nH]c(=S)n3C2)c1F [Example 62, (R)-6-(2,3,5,6-tetrafluorophenyl)-6,7-dihydro-2H-pyrrolo[1,2-c]imidazole-3(5H)-thione] |  |
| 11.8% | 1% |  |  | CNC(=S)N1CCC(c2c(F)c(F)cc(F)c2F)C1 (stereo not drawn) [Example 33, N-methyl-3-(2,3,5,6-tetrafluorophenyl)pyrrolidine-1-carbothioamide] |  |
| 39.6% | 0% |  |  | Fc1ccc(F)c([C@H]2Cc3c[nH]c(=S)n3C2)c1F [Example 113, (R)-6-(2,3,6-trifluorophenyl)-2,5,6,7-tetrahydro-3H-pyrrolo[1,2-c]imidazole-3-thione] |  |
| 0% | 0% |  |  | [2H]C([2H])([2H])c1[nH]c(=S)n2c1[C@@H]1C[C@]1(c1cc(Cl)ccc1F)C2 [Example 100, (5aS,6aR)-5a-(5-chloro-2-fluorophenyl)-1-(methyl-d3)-5,5a,6,6a-tetrahydrocyclopropa[3,4]pyrrolo[1,2-c]imidazole-3 (2H)-thione] |  |
| 6.4% | 0% |  |  | Fc1ccc(Br)c(F)c1[C@@H]1Cc2c[nH]c(=S)n2C1 [Example 117, (S)-6-(3-bromo-2,6-difluorophenyl)-2,5,6,7-tetrahydro-3H-pyrrolo[1,2-c]imidazole-3-thione] |  |
| 70.8% | 15.2% |  |  | Cn1cc2n(c1=S)C[C@@H](c1c(F)c(F)cc(F)c1F)C2 [Example 114, (R)-2-methyl-6-(2,3,5,6-tetrafluorophenyl)-2,5,6,7-tetrahydro-3H-pyrrolo[1,2-c]imidazole-3-thione] |  |
|  | 38.8% |  |  | C[C@H]1c2c[nH]c(=S)n2C[C@H]1c1c(F)c(F)cc(F)c1F [Example 108, (6R,7R)-7-methyl-6-(2,3,5,6-tetrafluorophenyl)-2,5,6,7-tetrahydro-3H-pyrrolo[1,2-c]imidazole-3-thione] |  |
|  | 48.3% |  |  | Fc1cc(F)c(F)c([C@H]2CC3CNC(=S)N3C2)c1F (stereo partly drawn) [Example 111, (6R)-6-(2,3,5,6-tetrafluorophenyl)tetrahydro-1H-pyrrolo[1,2-c]imidazole-3(2H)-thione] |  |
| 39.9% | 7.2% |  |  | Fc1cccc(F)c1[C@]12C[C@H]1c1c[nH]c(=S)n1C2 [Example 64, (5aS,6aR)-5a-(2,6-difluorophenyl)-5,5a,6,6a-tetrahydrocyclopropa[3,4]pyrrolo[1,2-c]imidazole-3(2H)-thione] |  |

From patent US10975083B2, “Blood-brain barrier-penetrant dopamine-β-hydroxylase inhibitors” (BIAL—PORTELA & Cᵃ, S.A., priority 2016, dated 2021)
